Data taken from patent US9322066B2, “Predictors for cancer treatment” (priority 2011, dated 2016).

Tested on: relapsed or refractory, rituximab-naive or -sensitive follicular B-cell NHL
Assay: Duration of response, Vc-R vs rituximab study, by biomarker
Format: in vivo, human
Excerpt: Non-Hodgkin lymphoma (NHL) encompasses several unique malignant lymphoid disease entities that vary in clinical behavior, morphologic appearance, immunologic, and molecular phenotype. […] A randomized, open-label, active-controlled, multicenter, multinational, prospective study to compare the efficacy and safety of the combination of bortezomib and rituximab (Vc-R) to single-agent rituximab in subjects who have relapsed or refractory, rituximab-naive or -sensitive follicular B-cell NHL was performed.
Subjects were centrally randomized to Treatment Groups A (Vc-R) or B (rituximab) in a 1:1 ratio taking into account the following stratification factors: • Follicular Lymphoma International Prognostic Index (FLIPI) score (low [0 or 1 factor], intermediate [2 factors], high [≧3 factors]); • Prior rituximab therapy (yes, no); • Time since last dose of anti-lymphoma therapy (≦1 year, >1 year); • Region (United States/Canada, European Union, Rest of World).
The following clinical endpoints were included in the analysis within each treatment group and an overall comparison was made with the biomarker-related endpoints: Progression-free survival, defined as the interval between the date of randomization and the date of progressive disease (PD) or death, whichever is first reported in the ITT population; overall survival; overall response rate (complete response [CR]+CR unconfirmed [CRu]+partial response [PR]); overall CR rate (CR+CRu); duration of response; time to next anti-lymphoma therapy; and treatment free interval.
Comparison of the response rates between the treatment groups was conducted using the Fishers Exact Test. Duration of response, time to response, and time to clinical relapse were analyzed descriptively, where appropriate, and the biomarker subset was compared (if appropriate, determined as per the initial analysis) to the overall clinical cohort, by treatment group and overall. An exploratory estimate of the response rates in each treatment group was presented with 2-sided 95% confidence intervals. The number and percentage of subjects falling into each response category was descriptively tabulated.

[1] = 20S % NUCLEAR STAINING: 30-50, Prior Rituximab Therapy
[2] = 20S INTENSITY CYTOPLASMIC SIGNAL: ≦2+, Intermediate FLIPI Score
[3] = 20S INTENSITY CYTOPLASMIC SIGNAL: ≧3+, Intermediate FLIPI Score
[4] = 20S INTENSITY CYTOPLASMIC SIGNAL: ≧3+, No Prior Rituximab Therapy
[5] = 20S INTENSITY CYTOPLASMIC SIGNAL: ≧3+, ≦65 years old
[6] = BCL2/ A43G: MND, Ann Arbor Stage IV
[7] = BCL2/ E29K: MND, Ann Arbor Stage IV
[8] = BCL2/ P46L: MD, >1 year since last anti- lymphoma treatment
[9] = BCL2/ P59L: MD, 1 Prior Line of Therapy
[10] = BCL2/ P59L: MD, >1 year since last anti- lymphoma treatment
[11] = BCL2/ P59L: MD, Prior Rituximab Therapy
[12] = BCL2/ R106H: MND, Ann Arbor Stage IV
[13] = CD68 OVERALL POSITIVE: 0-25, High FLIPI Score
[14] = CD68 OVERALL POSITIVE: 0-25, ≦1 year since last anti-lymphoma treatment
[15] = CD68 OVERALL POSITIVE: 51-75, Male
[16] = CD68 OVERALL POSITIVE: >75, Male
[17] = CD68 POSITIVE FOLLICULAR: 0-25, Female
[18] = CD68 POSITIVE PERIFOLLICULAR: >75, Male
[19] = NOTCH/ P2513L: MND, >65 years old
[20] = NOTCH/ X28INS: MND, Ann Arbor Stage IV
[21] = NOTCH/ X28INS: MND, ≦65 years old
[22] = P27 % NUCLEI POSITIVE: 60-70, High FLIPI Score
[23] = P27 % NUCLEI POSITIVE: 60-70, Male
[24] = P65 INTENSITY CYTOPLASMIC SIGNAL: ≦1+, Ann Arbor Stage III

With rituximab as the substance, how does the “Duration of response Evt/N” value [1] read?
The value was 9/13.

And the “Duration of response Median” value [1]?
Its value is 356.

What about the “Duration of response Evt/N” value [2] of the same substance?
The value was 9/25.

And the “Duration of response Median” value [2]?
Its value is 554.

What about the “Duration of response Evt/N” value [3] of the same substance?
The value was 17/25.

What about the “Duration of response Median” value [3] of the same substance?
Its value is 352.

What about the “Duration of response Evt/N” value [4] of the same substance?
Its value is 22/32.

What about the “Duration of response Median” value [4] of the same substance?
Its value is 427.

And the “Duration of response Evt/N” value [5]?
The value was 28/39.

And the “Duration of response Median” value [5]?
The value was 417.

What about the “Duration of response Evt/N” value [6] of the same substance?
The value was 23/28.

And the “Duration of response Median” value [6]?
The value was 353.

And the “Duration of response Evt/N” value [7]?
The value was 21/26.

What about the “Duration of response Median” value [7] of the same substance?
The value was 344.

And the “Duration of response Evt/N” value (BCL2/ E29K: MND, ≦65 years old)?
Its value is 32/49.

And the “Duration of response Median” value (BCL2/ E29K: MND, ≦65 years old)?
Its value is 353.

And the “Duration of response Evt/N” value [8]?
The value was 5/5.

What about the “Duration of response Median” value [8] of the same substance?
Its value is 356.

And the “Duration of response Evt/N” value [9]?
The value was 2/2.

And the “Duration of response Median” value [9]?
Its value is 345.

And the “Duration of response Evt/N” value [10]?
Its value is 3/4.

And the “Duration of response Median” value [10]?
Its value is 330.

What about the “Duration of response Evt/N” value (BCL2/ P59L: MD, No Subgroup) of the same substance?
Its value is 4/5.

What about the “Duration of response Median” value (BCL2/ P59L: MD, No Subgroup) of the same substance?
Its value is 343.

And the “Duration of response Evt/N” value [11]?
Its value is 3/3.

What about the “Duration of response Median” value [11] of the same substance?
The value was 330.

And the “Duration of response Evt/N” value (BCL2/ P59L: MD, White)?
The value was 4/5.

And the “Duration of response Median” value (BCL2/ P59L: MD, White)?
Its value is 343.

And the “Duration of response Evt/N” value [12]?
Its value is 21/26.

And the “Duration of response Median” value [12]?
Its value is 352.

What about the “Duration of response Evt/N” value [13] of the same substance?
The value was 7/11.

What about the “Duration of response Median” value [13] of the same substance?
The value was 423.

And the “Duration of response Evt/N” value [14]?
The value was 5/7.

What about the “Duration of response Median” value [14] of the same substance?
Its value is 354.

And the “Duration of response Evt/N” value [15]?
Its value is 5/7.

And the “Duration of response Median” value [15]?
Its value is 279.

And the “Duration of response Evt/N” value [16]?
The value was 3/3.

And the “Duration of response Median” value [16]?
Its value is 284.

And the “Duration of response Evt/N” value [17]?
The value was 12/20.

What about the “Duration of response Median” value [17] of the same substance?
Its value is 354.

What about the “Duration of response Evt/N” value [18] of the same substance?
The value was 3/3.

What about the “Duration of response Median” value [18] of the same substance?
The value was 284.

What about the “Duration of response Evt/N” value [19] of the same substance?
Its value is 10/23.

And the “Duration of response Median” value [19]?
Its value is 948.

And the “Duration of response Evt/N” value [20]?
Its value is 26/31.

And the “Duration of response Median” value [20]?
Its value is 353.

And the “Duration of response Evt/N” value [21]?
The value was 44/64.

What about the “Duration of response Median” value [21] of the same substance?
The value was 369.

And the “Duration of response Evt/N” value [22]?
The value was 7/9.

And the “Duration of response Median” value [22]?
Its value is 337.

And the “Duration of response Evt/N” value [23]?
Its value is 5/6.

And the “Duration of response Median” value [23]?
Its value is 281.

And the “Duration of response Evt/N” value [24]?
The value was 2/4.

And the “Duration of response Median” value [24]?
The value was 173.

What about the “Duration of response Evt/N” value (PSMB5/R24C: C/C, Ann Arbor Stage II) of the same substance?
The value was 4/18.

And the “Duration of response Evt/N” value (PSMB9/R60H: A/G, Male)?
Its value is 10/11.

And the “Duration of response Median” value (PSMB9/R60H: A/G, Male)?
The value was 211.
